As a reminder, the MBC is the lowest tested concentration that kills the bacteria rather than only halting them. A lower MBC goes with greater bactericidal potency. The term MIC denotes the lowest concentration found to suppress growth. A low value points to a more susceptible organism.

Assay [1] deals with Staphylococcus aureus. In words: Antimicrobial activity against Staphylococcus aureus CIP 4.83 after 18 to 24 hrs by broth microdilution method. The format is functional. (In broth dilution the organism is exposed to a series of concentrations in liquid medium.)
A further assay relates to Enterococcus hirae. The experiment in a line: Antimicrobial activity against Enterococcus hirae CIP 5855 after 18 to 24 hrs by broth microdilution method. The format is functional.
Another assay deals with Pseudomonas aeruginosa. The experiment in a line: Antimicrobial activity against Pseudomonas aeruginosa CIP 82.118 after 18 to 24 hrs by broth microdilution method. The format is functional.
The next assay concerns Escherichia coli. The experiment in a line: Antimicrobial activity against Escherichia coli CIP 53126 after 18 to 24 hrs by broth microdilution method. The format is functional.
The test system of assay [2] is Staphylococcus aureus. In words: Antimicrobial activity against methicillin-resistant Staphylococcus aureus ATCC 33591 after 18 to 24 hrs by broth microdilution method. It counts as functional.
Assay [3] concerns Staphylococcus aureus. In words: Antimicrobial activity against methicillin-resistant Staphylococcus aureus ATCC 33592 after 18 to 24 hrs by broth microdilution method. The format is functional.
For assay [4], the system named is Staphylococcus aureus. In words: Antimicrobial activity against multidrug-resistant Staphylococcus aureus isolate 1 after 18 to 24 hrs by broth microdilution method. The format is functional.
For assay [5], the system named is Staphylococcus aureus. In words: Antimicrobial activity against multidrug-resistant Staphylococcus aureus isolate 2 after 18 to 24 hrs by broth microdilution method. The format is functional.
The subject of assay [6] is Mycobacterium tuberculosis. The experiment in a line: Antimycobacterial activity against Mycobacterium tuberculosis H37Rv assessed as growth inhibition at 0.1 uM after 6 days by MTT colorimetric microassay. It counts as functional, organism-based.

Each structure is given as a SMILES string. ≈ marks a conversion by molar mass, not a printed value. Calls of active or inactive are those of the source. The rule behind the calls is not given here.

With `O=C(O)c1cn(C2CC2)c2cc(N3CCN(C(=O)CO)CC3)c(F)cc2c1=O`, the MBC was 1.9 µM (≈ 0.74 µg/mL) in the assay on Staphylococcus aureus [1]; 7.8 µM (≈ 3.04 µg/mL) against Enterococcus hirae; 250 µM (≈ 97.3 µg/mL) in the assay on Pseudomonas aeruginosa; 1.9 µM (≈ 0.74 µg/mL) against Escherichia coli; 1.9 µM (≈ 0.74 µg/mL) in the assay on Staphylococcus aureus [2]; 1.9 µM (≈ 0.74 µg/mL) against Staphylococcus aureus [3]. Also, the minimal bactericidal concentration (MBC) is above 500 µM against Staphylococcus aureus [4] and 62.5 µM (≈ 24.3 µg/mL) in the assay on Staphylococcus aureus [5]. For the same compound, the MIC in the assay with Staphylococcus aureus [1] is at most 0.97 µM; against Enterococcus hirae it was 7.8 µM (≈ 3.04 µg/mL); with Pseudomonas aeruginosa, 15.6 µM (≈ 6.07 µg/mL); with Escherichia coli it was at most 0.97 µM; in the assay on Staphylococcus aureus [2] it was 0.97 µM (≈ 0.378 µg/mL); with Staphylococcus aureus [3] it was 0.24 µM (≈ 0.0935 µg/mL). For the same compound, the MIC was found to be 125 µM (≈ 48.7 µg/mL) in the assay on Staphylococcus aureus [4] and 62.5 µM (≈ 24.3 µg/mL) against Staphylococcus aureus [5]. In addition, the “growth inhibition (GI)” value in [6] is “inactive”.
Regarding `O=C(CCCCCCCCCCCCCC(=O)OCN1CCN(c2cc3c(cc2F)c(=O)c(C(=O)O)cn3C2CC2)CC1)OCN1CCN(c2cc3c(cc2F)c(=O)c(C(=O)O)cn3C2CC2)CC1`, the MBC is at most 0.48 µM in the assay with Staphylococcus aureus [1]; 15.6 µM (≈ 15 µg/mL) in the assay with Enterococcus hirae; 250 µM (≈ 240 µg/mL) with Pseudomonas aeruginosa; 62.5 µM (≈ 59.9 µg/mL) against Escherichia coli; 1.9 µM (≈ 1.82 µg/mL) with Staphylococcus aureus [2]; 0.97 µM (≈ 0.93 µg/mL) against Staphylococcus aureus [3]. Further, the results for the minimum bactericidal concentration (MBC) against Staphylococcus aureus [4] and in the assay on Staphylococcus aureus [5] were 500 µM (≈ 480 µg/mL) and 62.5 µM (≈ 59.9 µg/mL), respectively. The MIC in the assay on Staphylococcus aureus [1] was at most 0.12 µM; in the assay with Enterococcus hirae, 7.8 µM (≈ 7.48 µg/mL); against Pseudomonas aeruginosa, 62.5 µM (≈ 59.9 µg/mL); in the assay on Escherichia coli, 31.2 µM (≈ 29.9 µg/mL); with Staphylococcus aureus [2], 0.48 µM (≈ 0.46 µg/mL); in the assay on Staphylococcus aureus [3] it was 0.12 µM (≈ 0.115 µg/mL). The results for the minimal inhibitory concentration (MIC) in the assay with Staphylococcus aureus [4] and against Staphylococcus aureus [5] were 62.5 µM (≈ 59.9 µg/mL) and 31.2 µM (≈ 29.9 µg/mL), respectively. Besides, the “growth inhibition (GI)” value in assay [6] was “inactive”.
Turning to `CC(=O)OCC(=O)N1CCN(c2cc3c(cc2F)c(=O)c(C(=O)O)cn3C2CC2)CC1`, the MBC with Staphylococcus aureus [1] is at most 0.97 µM; with Enterococcus hirae it was 15.6 µM (≈ 6.73 µg/mL); with Pseudomonas aeruginosa, 250 µM (≈ 108 µg/mL); against Escherichia coli, 15.6 µM (≈ 6.73 µg/mL); with Staphylococcus aureus [2], 3.9 µM (≈ 1.68 µg/mL); against Staphylococcus aureus [3], 1.9 µM (≈ 0.82 µg/mL). Moreover, the results for the MBC in the assay on Staphylococcus aureus [4] and in the assay on Staphylococcus aureus [5] were 500 µM (≈ 216 µg/mL) and 125 µM (≈ 53.9 µg/mL), respectively. In addition, the MIC is at most 0.97 µM in the assay with Staphylococcus aureus [1]; 15.6 µM (≈ 6.73 µg/mL) with Enterococcus hirae; 62.5 µM (≈ 27 µg/mL) in the assay on Pseudomonas aeruginosa; 7.8 µM (≈ 3.37 µg/mL) in the assay on Escherichia coli; 3.9 µM (≈ 1.68 µg/mL) in the assay on Staphylococcus aureus [2]; 0.97 µM (≈ 0.418 µg/mL) with Staphylococcus aureus [3]. Besides, the minimum inhibitory concentration (MIC) against Staphylococcus aureus [4] and against Staphylococcus aureus [5] was 125 µM (≈ 53.9 µg/mL) throughout. Further, the “growth inhibition (GI)” value in [6] was “inactive”.
Turning to `CCCCCCCCOC(=O)N1CCN(c2cc3c(cc2F)c(=O)c(C(=O)O)cn3C2CC2)CC1`, the minimum bactericidal concentration (MBC) in the assay on Staphylococcus aureus [1] is 62.5 µM (≈ 30.5 µg/mL); against Enterococcus hirae, 125 µM (≈ 60.9 µg/mL); against Pseudomonas aeruginosa, 250 µM (≈ 122 µg/mL); with Escherichia coli, 500 µM (≈ 244 µg/mL). Further, the MIC was found to be 7.8 µM (≈ 3.8 µg/mL) with Staphylococcus aureus [1], 125 µM (≈ 60.9 µg/mL) against Enterococcus hirae, 125 µM (≈ 60.9 µg/mL) with Pseudomonas aeruginosa and 125 µM (≈ 60.9 µg/mL) against Escherichia coli. Further, the “growth inhibition (GI)” value in assay [6] is “inactive”.
As to `CCCCCCCCCOC(=O)N1CCN(c2cc3c(cc2F)c(=O)c(C(=O)O)cn3C2CC2)CC1`, the MBC with Staphylococcus aureus [1] stood at 125 µM (≈ 62.7 µg/mL); in the assay on Enterococcus hirae it was 250 µM (≈ 125 µg/mL); against Pseudomonas aeruginosa it was 250 µM (≈ 125 µg/mL); in the assay on Escherichia coli it was 500 µM (≈ 251 µg/mL). Besides, the MIC turned out to be 62.5 µM (≈ 31.3 µg/mL) against Staphylococcus aureus [1], 62.5 µM (≈ 31.3 µg/mL) against Enterococcus hirae, 125 µM (≈ 62.7 µg/mL) in the assay on Pseudomonas aeruginosa and 125 µM (≈ 62.7 µg/mL) with Escherichia coli. For the same compound, in [6], the “growth inhibition (GI)” value is “inactive”.
Consider `CCCCC(=O)N1CCN(c2cc3c(cc2F)c(=O)c(C(=O)O)cn3C2CC2)CC1`, for which the minimum bactericidal concentration (MBC) is at most 0.48 µM against Staphylococcus aureus [1]; 7.8 µM (≈ 3.24 µg/mL) against Enterococcus hirae; 250 µM (≈ 104 µg/mL) against Pseudomonas aeruginosa; 15.6 µM (≈ 6.48 µg/mL) against Escherichia coli; 0.48 µM (≈ 0.199 µg/mL) against Staphylococcus aureus [2]; 0.48 µM (≈ 0.199 µg/mL) with Staphylococcus aureus [3]. The MBC against Staphylococcus aureus [4] is 500 µM (≈ 208 µg/mL); against Staphylococcus aureus [5], 31.2 µM (≈ 13 µg/mL). For the same compound, the MIC against Staphylococcus aureus [1] is at most 0.24 µM; in the assay on Enterococcus hirae, 7.8 µM (≈ 3.24 µg/mL); in the assay with Pseudomonas aeruginosa it was 62.5 µM (≈ 26 µg/mL); against Escherichia coli it was 7.8 µM (≈ 3.24 µg/mL); against Staphylococcus aureus [2] it was 0.48 µM (≈ 0.199 µg/mL); in the assay with Staphylococcus aureus [3], 0.24 µM (≈ 0.0997 µg/mL). The MIC with Staphylococcus aureus [4] came out at 62.5 µM (≈ 26 µg/mL); in the assay on Staphylococcus aureus [5], 31.2 µM (≈ 13 µg/mL). Also, the “growth inhibition (GI)” value in assay [6] was “inactive”.
Turning to `CCCCCCCCCCCCCCCC(=O)OCC(=O)N1CCN(c2cc3c(cc2F)c(=O)c(C(=O)O)cn3C2CC2)CC1`, the minimal bactericidal concentration (MBC) stood at 500 µM (≈ 314 µg/mL) against Staphylococcus aureus [1], 500 µM (≈ 314 µg/mL) with Enterococcus hirae, 250 µM (≈ 157 µg/mL) against Pseudomonas aeruginosa and 500 µM (≈ 314 µg/mL) with Escherichia coli. Also, the minimum inhibitory concentration (MIC) is 62.5 µM (≈ 39.2 µg/mL) in the assay on Staphylococcus aureus [1], 125 µM (≈ 78.5 µg/mL) against Enterococcus hirae, 125 µM (≈ 78.5 µg/mL) against Pseudomonas aeruginosa and 125 µM (≈ 78.5 µg/mL) against Escherichia coli. The “growth inhibition (GI)” value in [6] is “inactive”.
As to `O=C(O)c1cn(C2CC2)c2cc(N3CCN(C(=O)CCCCCCCCCCC(=O)N4CCN(c5cc6c(cc5F)c(=O)c(C(=O)O)cn6C5CC5)CC4)CC3)c(F)cc2c1=O`, the MBC is at most 0.97 µM against Staphylococcus aureus [1]; 500 µM (≈ 428 µg/mL) against Enterococcus hirae; 250 µM (≈ 214 µg/mL) with Pseudomonas aeruginosa; 62.5 µM (≈ 53.6 µg/mL) against Escherichia coli; 3.9 µM (≈ 3.34 µg/mL) against Staphylococcus aureus [2]; 1.9 µM (≈ 1.63 µg/mL) in the assay on Staphylococcus aureus [3]. The minimal bactericidal concentration (MBC) against Staphylococcus aureus [4] and in the assay with Staphylococcus aureus [5] was 500 µM (≈ 428 µg/mL) throughout. In addition, the MIC is at most 0.12 µM against Staphylococcus aureus [1]; 125 µM (≈ 107 µg/mL) in the assay with Enterococcus hirae; 62.5 µM (≈ 53.6 µg/mL) against Pseudomonas aeruginosa; 62.5 µM (≈ 53.6 µg/mL) in the assay with Escherichia coli; 0.48 µM (≈ 0.411 µg/mL) in the assay with Staphylococcus aureus [2]; 0.12 µM (≈ 0.103 µg/mL) in the assay with Staphylococcus aureus [3]. In addition, the minimum inhibitory concentration (MIC) in the assay with Staphylococcus aureus [4] and in the assay on Staphylococcus aureus [5] was 125 µM (≈ 107 µg/mL) in each case. Besides, the “growth inhibition (GI)” value in [6] was “inactive”.

The record behind these values is ChEMBL document CHEMBL1914411, “Synthesis of lipophilic dimeric C-7/C-7-linked ciprofloxacin and C-6/C-6-linked levofloxacin derivatives. Versatile in vitro biological evaluations of monomeric and dimeric fluoroquinolone derivatives as potential antitumor, antibacterial or antimycobacterial agents” (Eur J Med Chem, 2011).
